Results on 1 molecule are retold here after PMC9871843 (Clinical Kidney Journal, 2022).

Each structure is given as a SMILES string.

The data set can be described thus: Safety and tolerability. As to conditions: healthy adults, single oral dose. It is filed as in vivo, healthy participants (human).
Where [1] appears, read: safety analysis set, by system organ class.

For `C=CC[C@@H]1/C=C(\C)C[C@H](C)C[C@H](OC)[C@H]2O[C@@](O)(C(=O)C(=O)N3CCCC[C@H]3C(=O)O[C@H](/C(C)=C/[C@@H]3CC[C@@H](O)[C@H](OC)C3)[C@H](C)[C@@H](O)CC1=O)[C@H](C)C[C@@H]2OC` [Tacrolimus, tacrolimus], the “participants in whom adverse events were reported” value is recorded as “seven”. Besides, the “Participants with any AE” value (safety analysis set, N as in column head) is 7 (22.6) n (%). In addition, under setting [1], the “Participants with AEs: Cardiac disorders” value is given as 0 n (%); the “Participants with AEs: Eye disorders” value is on record as 1 (3.2) n (%); the “Participants with AEs: Gastrointestinal disorders” value is 2 (6.5) n (%); the “Participants with AEs: General disorders and administration site conditions” value is recorded as 1 (3.2) n (%). In addition, under setting [1], the “Participants with AEs: Infections and infestations” value is 0 n (%); the “Participants with AEs: Injury, poisoning and procedural complications” value is 1 (3.2) n (%); the “Participants with AEs: Musculoskeletal and connective tissue disorders” value is listed as 1 (3.2) n (%); the “Participants with AEs: Nervous system disorders” value is 3 (9.7) n (%). Further, under setting [1], the “Participants with AEs: Renal and urinary disorders” value is 0 n (%); the “Participants with AEs: Respiratory, thoracic and mediastinal disorders” value was 0 n (%).
